# How the values were obtained:
# Assay type in all cases: functional, cell-based
# KB = test: Cytotoxicity against human KB cells after 72 hrs by MTT assay
# HepG2 = test: Cytotoxicity against human HepG2 cells after 72 hrs by MTT assay; details: HepG2, 72 h
# OVCAR-3 = test: Cytotoxicity against human OVCAR-3 cells after 72 hrs by MTT assay; details: OVCAR-3, 72 h
Compound,IC50 (KB),IC50 (HepG2),IC50 (OVCAR-3)
CCCCNc1nc2c(ncn2-c2ccccc2)c(=O)n1-c1ccc(Cl)cc1,37.7 µM,77.6 µM,94.8 µM
CCCCCN(CCCCC)c1nc2c(ncn2-c2ccccc2)c(=O)n1-c1ccc(Cl)cc1,10.6 µM,> 100 µM,> 100 µM
CCNc1nc2c(ncn2-c2ccccc2)c(=O)n1-c1ccccc1,> 100 µM,> 100 µM,> 100 µM
CC(C)N(c1nc2c(ncn2-c2ccccc2)c(=O)n1-c1ccccc1)C(C)C,53.5 µM,> 100 µM,> 100 µM
CNc1nc2c(ncn2-c2ccccc2)c(=O)n1-c1ccc(Cl)cc1,> 100 µM,> 100 µM,> 100 µM
CN(C)c1nc2c(ncn2-c2ccccc2)c(=O)n1-c1ccccc1,83.8 µM,> 100 µM,> 100 µM
O=c1c2ncn(-c3ccccc3)c2nc(NCc2ccccc2)n1-c1ccc(Cl)cc1,34.3 µM,62.1 µM,46.7 µM
O=c1c2ncn(-c3ccccc3)c2nc(N2CCCCC2)n1-c1ccc(Cl)cc1,72.8 µM,> 100 µM,> 100 µM
CCCCN(CCCC)c1nc2c(ncn2-c2ccccc2)c(=O)n1-c1ccccc1,9.5 µM,20.4 µM,10 µM
CNc1nc2c(ncn2-c2ccccc2)c(=O)n1-c1ccccc1,> 100 µM,> 100 µM,> 100 µM

# From ChEMBL document CHEMBL1143317, “Efficient synthesis and biological evaluation of 1,2,9-trisubstituted 1,9-dihydro-6H-purin-6-ones” (Bioorg Med Chem Lett, 2009)
